The results in this text go back to ChEMBL document CHEMBL1134142, “Prodrugs of 3-amido bearing pseudomycin analogues: novel antifungal agents” (Bioorg Med Chem Lett, 2001).

≈ marks a conversion by molar mass, not a printed value. Bridge positions count the residues as written; N and C are the ends. Square brackets hold non-standard residues; d marks the D form. Side chains are listed from the residue outwards. Peptide text beside a SMILES is read from it. * marks the point of attachment. Tetradecanoyl(3R-OH) = CCCCCCCCCCC[C@@H](O)CC(=O)*; Asp(3S-OH) = N[C@H](C(=O)O)[C@H](O)C(=O)O; Thr(4-Cl) = N[C@H](C(=O)O)[C@H](O)CCl; aThr = C[C@H](O)[C@H](N)C(=O)O; dDab = NCC[C@@H](N)C(=O)O; NHCH2CH2NMe2 = CN(C)CCN*; Dab = NCC[C@H](N)C(=O)O; Dhb = C/C=C(\N)C(=O)O; X1 = CCN(CC)CCN*; NHcPr = C1CC1N* Bounds are passed on as bounds.

Data set [1] can be described thus: The compound was tested for toxicity in tail vein irritation model; No. The conditions noted are these: mouse.
The species entered for data set [2] is Mus musculus. The data set is described as follows: Maximum tolerated dose against tail vein irritation determined by dose elevation study. It is filed as functional.
In data set [3] the test system is Mus musculus. Briefly: (§1) Compound was evaluated in vivo for its effective dose against cryptococosis. Format: functional.
The test system of data set [4] is Mus musculus. Briefly: Compound was evaluated in vivo for its effective dose against Murine candidiasis. Format: functional.
A short description of data set [5]: The compound was tested for toxicity in tail vein irritation model; Yes. The conditions noted are these: mouse.
Data set [6] has as its system Candida albicans. Briefly: Minimum inhibitory concentration against Candida albicans. Format: functional.
Data set [7] has as its system Aspergillus fumigatus. Briefly: Minimum inhibitory concentration against Aspergillus fumigatus. It is filed as functional.
Data set [8] deals with Cryptococcus neoformans. The data set is described as follows: Minimum inhibitory concentration against Cryptococcus neoformans.
The test system of data set [9] is Cryptococcus neoformans. Described as §1. Format: functional.

For `C/C=C1\NC(=O)[C@H]([C@H](C)O)NC(=O)[C@H](CCNC(=O)OCOC(=O)C(C)C)NC(=O)[C@H](CCCCNC(=O)OCOC(=O)C(C)C)NC(=O)[C@H](CC(=O)NC2CC2)NC(=O)[C@@H](CCNC(=O)OCOC(=O)C(C)C)NC(=O)[C@@H](NC(=O)C[C@H](O)CCCCCCCCCCC)COC(=O)[C@H]([C@H](O)CCl)NC(=O)[C@H]([C@H](O)C(=O)O)NC1=O`, the Toxicity result in data set [1] is “Not toxic”. Moreover, the Dose elevation in [2] turned out to be 125 mg/kg. Further, the 50% effective dose (ED50) in data set [3] was 0.56 mg/kg; in data set [4] it was below 5 mg/kg.

`C/C=C1\NC(=O)[C@H]([C@H](C)O)NC(=O)[C@H](CCNC(=O)OCOC(=O)C(C)(C)C)NC(=O)[C@H](CCCCNC(=O)OCOC(=O)C(C)(C)C)NC(=O)[C@H](CC(=O)NC2CC2)NC(=O)[C@@H](CCNC(=O)OCOC(=O)C(C)(C)C)NC(=O)[C@@H](NC(=O)C[C@H](O)CCCCCCCCCCC)COC(=O)[C@H]([C@H](O)CCl)NC(=O)[C@H]([C@H](O)C(=O)O)NC1=O`: the Toxicity entry in data set [1] is reported as “Not toxic”. This compound came in with a 50% effective dose (ED50) in data set [4] below 5 mg/kg.

As for `C/C=C1\NC(=O)[C@H]([C@H](C)O)NC(=O)[C@H](CCNC(=O)OCOC(=O)C(C)C)NC(=O)[C@H](CCCCNC(=O)OCOC(=O)C(C)C)NC(=O)[C@H](CC(=O)NCCN(C)C)NC(=O)[C@@H](CCNC(=O)OCOC(=O)C(C)C)NC(=O)[C@@H](NC(=O)C[C@H](O)CCCCCCCCCCC)COC(=O)[C@H]([C@H](O)CCl)NC(=O)[C@H]([C@H](O)C(=O)O)NC1=O`, the Toxicity result in [1] was “Not toxic”. This compound had a Dose elevation in data set [2] of 125 mg/kg. In data set [4], this compound displayed an ED50 of 6.6 mg/kg.

On to `C/C=C1\NC(=O)[C@H]([C@H](C)O)NC(=O)[C@H](CCNC(=O)OCOC(=O)C(C)(C)C)NC(=O)[C@H](CCCCNC(=O)OCOC(=O)C(C)(C)C)NC(=O)[C@H](CC(=O)NCCN(C)C)NC(=O)[C@@H](CCNC(=O)OCOC(=O)C(C)(C)C)NC(=O)[C@@H](NC(=O)C[C@H](O)CCCCCCCCCCC)COC(=O)[C@H]([C@H](O)CCl)NC(=O)[C@H]([C@H](O)C(=O)O)NC1=O`, for which the Toxicity result in data set [1] is recorded as “Not toxic”. The ED50 was 0.44 mg/kg in data set [3] and below 5 mg/kg in data set [4].

Turning to `C/C=C1\NC(=O)[C@H]([C@H](C)O)NC(=O)[C@H](CCNC(=O)OCOC(=O)C(C)(C)C)NC(=O)[C@H](CCCCNC(=O)OCOC(=O)C(C)(C)C)NC(=O)[C@H](CC(=O)NCC(=O)OC)NC(=O)[C@@H](CCNC(=O)OCOC(=O)C(C)(C)C)NC(=O)[C@@H](NC(=O)C[C@H](O)CCCCCCCCCCC)COC(=O)[C@H]([C@H](O)CCl)NC(=O)[C@H]([C@H](O)C(=O)O)NC1=O`, in data set [1], the Toxicity entry is “Not toxic”. This compound yielded a Dose elevation in [2] of 125 mg/kg. The 50% effective dose (ED50) in data set [3] is above 5 mg/kg; in data set [4] it was below 5 mg/kg.

Consider `C/C=C1\NC(=O)[C@H]([C@H](C)O)NC(=O)[C@H](CCN)NC(=O)[C@H](CCCCN)NC(=O)[C@H](CC(N)=O)NC(=O)[C@@H](CCN)NC(=O)[C@@H](NC(=O)C[C@H](O)CCCCCCCCCCC)COC(=O)[C@H]([C@H](O)CCl)NC(=O)[C@H]([C@H](O)C(=O)O)NC1=O` ({Tetradecanoyl(3R-OH)}-S[dDab]NK[Dab][aThr][Dhb][Asp(3S-OH)][Thr(4-Cl)]; ester 1-C), for which the Toxicity entry in data set [5] is reported as “Active”. The MIC in data set [6] was 2.5 µg/mL (≈ 2.07 µM); in [7], 10 µg/mL (≈ 8.29 µM); in data set [8], below 0.01 µg/mL.

Turning to `C/C=C1\NC(=O)[C@H]([C@H](C)O)NC(=O)[C@H](CCN)NC(=O)[C@H](CCCCN)NC(=O)[C@H](CC(=O)NC2CC2)NC(=O)[C@@H](CCN)NC(=O)[C@@H](NC(=O)C[C@H](O)CCCCCCCCCCC)COC(=O)[C@H]([C@H](O)CCl)NC(=O)[C@H]([C@H](O)C(=O)O)NC1=O` ({Tetradecanoyl(3R-OH)}-S[dDab]D(NHcPr)K[Dab][aThr][Dhb][Asp(3S-OH)][Thr(4-Cl)]; ester 1-C), the Toxicity result in data set [1] was “Not toxic”. For the same compound, in data set [2], the Dose elevation stood at 50 mg/kg. For the same compound, the ED50 is 2.9 mg/kg in [3] and below 5 mg/kg in data set [4].

As to `C/C=C1\NC(=O)[C@H]([C@H](C)O)NC(=O)[C@H](CCNC(=O)OCOC(=O)C(C)C)NC(=O)[C@H](CCCCNC(=O)OCOC(=O)C(C)C)NC(=O)[C@H](CC(=O)NCC(=O)OC)NC(=O)[C@@H](CCNC(=O)OCOC(=O)C(C)C)NC(=O)[C@@H](NC(=O)C[C@H](O)CCCCCCCCCCC)COC(=O)[C@H]([C@H](O)CCl)NC(=O)[C@H]([C@H](O)C(=O)O)NC1=O`, the Toxicity result in [1] was “Not toxic”. This compound came in with a Dose elevation in data set [2] of 125 mg/kg. The compound further returned an ED50 in [4] below 5 mg/kg.

For `C/C=C1\NC(=O)[C@H]([C@H](C)O)NC(=O)[C@H](CCN)NC(=O)[C@H](CCCCN)NC(=O)[C@H](CC(=O)O)NC(=O)[C@@H](CCN)NC(=O)[C@@H](NC(=O)C[C@H](O)CCCCCCCCCCC)COC(=O)[C@H]([C@H](O)CCl)NC(=O)[C@H]([C@H](O)C(=O)O)NC1=O` [PSEUDOMYCIN B] ({Tetradecanoyl(3R-OH)}-S[dDab]DK[Dab][aThr][Dhb][Asp(3S-OH)][Thr(4-Cl)]; ester 1-C), the Dose elevation in data set [2] turned out to be 20 mg/kg. The 50% effect level in data set [9] (ED50) was put at a dose of 1.8 mg/kg. The Toxicity entry in data set [5] is listed as “Active”. The MIC in data set [6] was determined as 0.625 µg/mL (≈ 0.517 µM); in data set [7], 20 µg/mL (≈ 16.6 µM); in data set [8], 0.01 µg/mL (≈ 0.00828 µM).

As to `C/C=C1\NC(=O)[C@H]([C@H](C)O)NC(=O)[C@H](CCNC(=O)OCOC(=O)C(C)C)NC(=O)[C@H](CCCCNC(=O)OCOC(=O)C(C)C)NC(=O)[C@H](CC(=O)NCCN(CC)CC)NC(=O)[C@@H](CCNC(=O)OCOC(=O)C(C)C)NC(=O)[C@@H](NC(=O)C[C@H](O)CCCCCCCCCCC)COC(=O)[C@H]([C@H](O)CCl)NC(=O)[C@H]([C@H](O)C(=O)O)NC1=O`, the Toxicity result in [1] is given as “Not toxic”. Further, the minimum inhibitory concentration (MIC) in data set [6], in [7] and in [8] was 20 µg/mL (≈ 11.5 µM) each time.

With `C/C=C1\NC(=O)[C@H]([C@H](C)O)NC(=O)[C@H](CCN)NC(=O)[C@H](CCCCN)NC(=O)[C@H](CC(=O)NCCN(CC)CC)NC(=O)[C@@H](CCN)NC(=O)[C@@H](NC(=O)C[C@H](O)CCCCCCCCCCC)COC(=O)[C@H]([C@H](O)CCl)NC(=O)[C@H]([C@H](O)C(=O)O)NC1=O` ({Tetradecanoyl(3R-OH)}-S[dDab]D(X1)K[Dab][aThr][Dhb][Asp(3S-OH)][Thr(4-Cl)]; ester 1-C), the Toxicity result in data set [5] is recorded as “Active”. The results for the MIC in [6], in data set [7] and in data set [8] were 10 µg/mL (≈ 7.66 µM), 10 µg/mL (≈ 7.66 µM) and below 0.01 µg/mL, respectively.

As to `C/C=C1\NC(=O)[C@H]([C@H](C)O)NC(=O)[C@H](CCN)NC(=O)[C@H](CCCCN)NC(=O)[C@H](CC(=O)NCCN(C)C)NC(=O)[C@@H](CCN)NC(=O)[C@@H](NC(=O)C[C@H](O)CCCCCCCCCCC)COC(=O)[C@H]([C@H](O)CCl)NC(=O)[C@H]([C@H](O)C(=O)O)NC1=O` ({Tetradecanoyl(3R-OH)}-S[dDab]D(NHCH2CH2NMe2)K[Dab][aThr][Dhb][Asp(3S-OH)][Thr(4-Cl)]; ester 1-C), in data set [1], the Toxicity result is “Not toxic”. In addition, in [2], the Dose elevation stood at 50 mg/kg. The ED50 is 2.5 mg/kg in data set [3] and below 5 mg/kg in data set [4].

Turning to `C/C=C1\NC(=O)[C@H]([C@H](C)O)NC(=O)[C@H](CCN)NC(=O)[C@H](CCCCN)NC(=O)[C@H](CC(=O)NC(C)(C)CC)NC(=O)[C@@H](CCN)NC(=O)[C@@H](NC(=O)C[C@H](O)CCCCCCCCCCC)COC(=O)[C@H]([C@H](O)CCl)NC(=O)[C@H]([C@H](O)C(=O)O)NC1=O`, the Toxicity entry in data set [5] is “Active”. In addition, the figures for the MIC in [6], in [7] and in [8] were 0.312 µg/mL (≈ 0.244 µM), above 20 µg/mL and below 0.01 µg/mL, respectively.

With `C/C=C1\NC(=O)[C@H]([C@H](C)O)NC(=O)[C@H](CCN)NC(=O)[C@H](CCCCN)NC(=O)[C@H](CC(=O)NCC(=O)OC)NC(=O)[C@@H](CCN)NC(=O)[C@@H](NC(=O)C[C@H](O)CCCCCCCCCCC)COC(=O)[C@H]([C@H](O)CCl)NC(=O)[C@H]([C@H](O)C(=O)O)NC1=O` ({Tetradecanoyl(3R-OH)}-S[dDab]D([Gly-OMe])K[Dab][aThr][Dhb][Asp(3S-OH)][Thr(4-Cl)]; ester 1-C), the Toxicity result in data set [1] is listed as “Not toxic”. The Dose elevation in data set [2] was below 50 mg/kg. Besides, the ED50 is 2.9 mg/kg in data set [3] and below 5 mg/kg in data set [4].

Regarding `C/C=C1\NC(=O)[C@H]([C@H](C)O)NC(=O)[C@H](CCNC(=O)OCOC(=O)C(C)C)NC(=O)[C@H](CCCCNC(=O)OCOC(=O)C(C)C)NC(=O)[C@H](CC(N)=O)NC(=O)[C@@H](CCNC(=O)OCOC(=O)C(C)C)NC(=O)[C@@H](NC(=O)C[C@H](O)CCCCCCCCCCC)COC(=O)[C@H]([C@H](O)CCl)NC(=O)[C@H]([C@H](O)C(=O)O)NC1=O`, in [1], the Toxicity result is “Not toxic”. The MIC in [6], in [7] and in data set [8] was 20 µg/mL (≈ 12.2 µM) in each case.

As to `C/C=C1\NC(=O)[C@H]([C@H](C)O)NC(=O)[C@H](CCNC(=O)OCOC(=O)C(C)C)NC(=O)[C@H](CCCCNC(=O)OCOC(=O)C(C)C)NC(=O)[C@H](CC(=O)NC(C)(C)CC)NC(=O)[C@@H](CCNC(=O)OCOC(=O)C(C)C)NC(=O)[C@@H](NC(=O)C[C@H](O)CCCCCCCCCCC)COC(=O)[C@H]([C@H](O)CCl)NC(=O)[C@H]([C@H](O)C(=O)O)NC1=O`, the Toxicity result in [1] was “Not toxic”. The minimum inhibitory concentration (MIC) in data set [6], in data set [7] and in data set [8] was 20 µg/mL (≈ 11.7 µM) throughout.

Broadly, the ED50 is the dose at which the effect has come halfway, by size or by number of responders. The low end stands for greater potency, the high end for weaker potency. Usually MIC stands for the smallest concentration in the dilution series that meets the test's criterion for growth inhibition. Read a high MIC as a less susceptible organism.
